What was measured:
[1] = Mathijssen R H et al., Clin Cancer Res, 2001; cited from earlier work
[2] = test system: colic adenocarcinoma HT29 cells; test: Cytotoxicity test in vitro on HT29 cells, MTT colorimetric assay; format: cell-based; conditions: 48 hours of contact, HA derivatives in 5% glucosated solution, SN38 in DMSO
Description: Evaluation of the Antiproliferative Activity of the Ester Conjugate HA/SN38 having a Substitution Degree Equal to 10% and 15%, on the Cellular Line of Colic Adenocarcinoma HT29
Aliquots of the derivatives obtained from examples 1 and 2 are characterized by means of a cytotoxicity test in vitro on a line of colic tumoral cells called HT29. The comparison was effected with SN38 dissolved in DMSO. The HA derivatives are solubilized in a glucosated solution at 5% at a concentration of 5 mg/ml. The test is effected by depositing on a plate with 96 cavities, 3000 cells per cavity; after 24 hours of incubation at 37° C., the cells are put in contact with the solutions and after a further 48 hours the cell vitality is determined by means of a MTT colorimetric assay (Dezinot F. et al., J. Immunol Methods, 1986, 22(89):271-277).
The proliferation curves referring to the two ester conjugates of HA are shown in the graphs (on the left the cytotoxic activity of the derivative at 15%, on the right that at 10%), see FIG. 4.
By comparing the data of EC50 with SN38 in dimethylsulfoxide (DMSO) the following results are obtained: […]

[3] = test system: DHD/K12 cells (MDR colon-rectum adenocarcinoma model); test: Cytotoxicity test in DHD/K12 cells, LIVE/DEAD Cell Vitality Assay; format: cell-based, rat; conditions: 0.25 μM, 48 hours of treatment
Description: The cellular line used derives from rats of the BDIX strain treated with 1,2-dimethylhydrazine.
In order to evaluate the degree of cellular vitality the LIVE/DEAD Cell Vitality Assay (Molecular Probes) was used, which allows metabolically active cells to be distinguished from dead cells: the latter emit green fluorescence at a nuclear level whereas live cells emit red fluorescence localized on the cellular membrane and in the cytoplasm. After colouring, the cells were analyzed using a confocal microscope and the percentage of live/dead cells was evaluated by counting a minimum of 500 live or dead cells per sample.

Row | Structure (SMILES) | antitumoral activity relative to commercial prodrug (Irinotecan) [1] [times] | EC50 [2] [nM] | cytotoxic effect at low concentration [3]
1 | CCc1c2c(nc3ccc(O)cc13)-c1cc3c(c(=O)n1C2)COC(=O)[C@]3(O)CC [SN38 in DMSO, SN38] | 100 to 1000 | 5 | 
2 | COc1cccc2c1C(=O)c1c(O)c3c(c(O)c1C2=O)C[C@@](O)(C(=O)CO)C[C@@H]3O[C@H]1C[C@H](N)[C@H](O)[C@H](C)O1 [doxorubicin] |  |  | does not have any cytotoxic effect
